Test [1] concerns the target T1, Vascular endothelial growth factor receptor 2 (Homo sapiens, UniProt P35968). As to the kind of experiment: Inhibition of KDR assessed as phosphorylation level of substrate at 10 uM by ELISA. (An ELISA detects its analyte on a solid surface through an enzyme-linked reagent.)
Test [2] has as its target T1, Vascular endothelial growth factor receptor 2. As to the kind of experiment: Inhibition of KDR assessed as phosphorylation level of substrate by ELISA.

The term inhibition denotes the change of the read-out against control, counted positive when it falls. As a reminder, the IC50 is the concentration at which inhibition is half-maximal.

T1 sequence (P35968 whole entry): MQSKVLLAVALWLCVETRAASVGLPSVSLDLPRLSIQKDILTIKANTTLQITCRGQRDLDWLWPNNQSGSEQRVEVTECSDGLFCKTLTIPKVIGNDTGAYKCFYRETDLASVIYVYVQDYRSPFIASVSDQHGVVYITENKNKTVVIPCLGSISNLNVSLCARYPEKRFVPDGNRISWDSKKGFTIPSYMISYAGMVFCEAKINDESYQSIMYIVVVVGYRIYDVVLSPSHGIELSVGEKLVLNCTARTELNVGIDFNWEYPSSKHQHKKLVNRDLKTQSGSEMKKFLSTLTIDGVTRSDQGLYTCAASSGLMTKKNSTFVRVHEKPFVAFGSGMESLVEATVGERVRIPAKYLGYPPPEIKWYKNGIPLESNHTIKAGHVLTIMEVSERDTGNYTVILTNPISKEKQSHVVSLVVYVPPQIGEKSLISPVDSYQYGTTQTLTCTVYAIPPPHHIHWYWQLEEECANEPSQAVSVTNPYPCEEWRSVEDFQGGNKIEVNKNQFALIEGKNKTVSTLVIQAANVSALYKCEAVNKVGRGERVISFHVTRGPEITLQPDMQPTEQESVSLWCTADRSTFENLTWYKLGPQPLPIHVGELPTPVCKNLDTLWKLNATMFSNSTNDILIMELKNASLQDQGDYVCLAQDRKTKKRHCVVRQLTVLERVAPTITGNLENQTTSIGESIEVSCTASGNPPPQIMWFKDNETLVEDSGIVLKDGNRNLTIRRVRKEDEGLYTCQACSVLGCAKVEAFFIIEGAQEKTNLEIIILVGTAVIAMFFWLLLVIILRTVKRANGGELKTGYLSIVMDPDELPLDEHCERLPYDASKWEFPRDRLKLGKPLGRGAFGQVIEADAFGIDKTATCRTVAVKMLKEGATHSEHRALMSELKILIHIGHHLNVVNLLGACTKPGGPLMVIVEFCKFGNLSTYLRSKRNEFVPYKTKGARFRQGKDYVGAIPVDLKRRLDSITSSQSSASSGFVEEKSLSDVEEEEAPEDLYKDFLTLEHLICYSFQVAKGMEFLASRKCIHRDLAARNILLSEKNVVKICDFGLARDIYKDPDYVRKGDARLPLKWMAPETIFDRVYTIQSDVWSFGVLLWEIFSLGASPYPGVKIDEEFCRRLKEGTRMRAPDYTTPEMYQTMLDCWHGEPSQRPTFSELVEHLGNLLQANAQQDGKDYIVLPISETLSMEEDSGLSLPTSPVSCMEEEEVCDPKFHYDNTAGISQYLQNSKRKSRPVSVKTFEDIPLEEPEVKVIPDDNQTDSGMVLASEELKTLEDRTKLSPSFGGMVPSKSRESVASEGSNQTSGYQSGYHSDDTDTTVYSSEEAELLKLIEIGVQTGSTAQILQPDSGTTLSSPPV

As for `Cc1cc(C)cc(NC(=O)c2c[nH]c3cccc(SCc4ccncc4)c23)c1`, in test [1], the inhibition worked out at 35%.

For the compound `CC(C)(C)c1ccc(NC(=O)c2c[nH]c3cccc(SCc4ccncc4)c23)cc1`, the inhibition in test [1] came to 51%.

For `O=C(Nc1ccc2c(c1)CCC2)c1c[nH]c2cccc(SCc3ccncc3)c12`, in test [1], the inhibition came out at 59%.

As to `CC(C)(C)c1ccc(NC(=O)c2c[nH]c3cccc(OCc4ccncc4)c23)cc1`, the inhibition in test [1] was found to be 6%.

As for `O=C(Nc1cc2ccccc2cn1)c1c[nH]c2cccc(NCc3ccncc3)c12`, the inhibition in test [1] turned out to be 55%.

With `O=C(Nc1ccc(Cl)cc1)c1c[nH]c2cccc(SCc3ccncc3)c12`, the inhibition in test [1] came out at 34%.

For the compound `O=C(Nc1ccc(OC(F)(F)F)cc1)c1c[nH]c2cccc(NCc3ccncc3)c12`, in test [1], the inhibition was found to be 14%.

For `O=C(Nc1cc2ccccc2cn1)c1c[nH]c2cccc(SCc3ccncc3)c12`, the inhibition in test [1] came to 74%.

As to `O=C(Nc1cccc(C(F)(F)F)c1)c1c[nH]c2cccc(SCc3ccncc3)c12`, the inhibition in test [1] is 92%. Further, in test [2], the IC50 is 309 nM.

In the case of `O=C(Nc1cccc(C(F)(F)F)c1)c1c[nH]c2cccc(NCc3ccncc3)c12`, the inhibition in test [1] was determined as 25%.

Turning to `O=C(Nc1cccc(C(F)(F)F)c1)c1c[nH]c2cccc(OCc3ccncc3)c12`, the inhibition in test [1] is 4%.

In the case of `O=C(Nc1ccc2c(c1)CCC2)c1c[nH]c2cccc(OCc3ccncc3)c12`, the inhibition in test [1] was found to be 19%.

Regarding `O=C(Nc1cccc(Cl)c1)c1c[nH]c2cccc(SCc3ccncc3)c12`, the inhibition in test [1] is 35%.

Take `O=C(Nc1cccc(Cl)c1)c1c[nH]c2cccc(NCc3ccncc3)c12`: the inhibition in test [1] came out at 18%.

For `O=C(Nc1ccc2c(c1)CCC2)c1c[nH]c2cccc(NCc3ccncc3)c12`, the inhibition in test [1] stood at 27%.

For `Cc1cc(C)cc(NC(=O)c2c[nH]c3cccc(NCc4ccncc4)c23)c1`, in test [1], the inhibition is 19%.

Consider `O=C(Nc1ccc(Cl)cc1)c1c[nH]c2cccc(OCc3ccncc3)c12`, for which the inhibition in test [1] turned out to be 9%.

On to `Cc1cccc(NC(=O)c2c[nH]c3cccc(SCc4ccncc4)c23)c1`, for which the inhibition in test [1] worked out at 52%.

As for `O=C(Nc1ccc(Cl)cc1)c1c[nH]c2cccc(NCc3ccncc3)c12`, the inhibition in test [1] amounted to 23%.

Turning to `CC(C)(C)c1ccc(NC(=O)c2c[nH]c3cccc(NCc4ccncc4)c23)cc1`, the inhibition in test [1] worked out at 25%.

As for `Cc1cccc(NC(=O)c2c[nH]c3cccc(NCc4ccncc4)c23)c1`, in test [1], the inhibition came out at 18%.

On to `O=C(Nc1ccc(OC(F)(F)F)cc1)c1c[nH]c2cccc(SCc3ccncc3)c12`, for which the inhibition in test [1] turned out to be 35%.

Source of the values: ChEMBL document CHEMBL1681739, “KDR inhibitor with the intramolecular non-bonded interaction: conformation-activity relationships of novel indole-3-carboxamide derivatives” (Bioorg Med Chem Lett, 2011).
